Entries after “also recorded” stand apart in the source; their conditions may differ.
Columns and labels:
[1] = test system: HCT116 human colon cancer xenografts; assay: HCT116 human colon cancer xenografts in immunodeficient mice; type: in vivo; conditions: 28-day treatment period
[2] = Aqueous solubility; type: physicochemical; conditions: result in words
Experimental: The specific POP inhibitor, J94 (acetyl-Lys-Leu-Arg-(L)boroPro (Ki<100 nM)); and the substrate, C95 (acetyl-Arg-AEEA-Gly-Pro-AMC), were designed, synthesized and characterized by us as previously reported. […] The inhibitors (J94 and M83) were dissolved in Hanks Balanced Salt Solution (HBSS; Gibco) at 1 mM and stored at −20° C. The substrate (C95) was dissolved in HBSS at 2.5 mM and stored at 4° C. […] Tic-Pro-AFC, a prolyl-specific fluorescent substrate, was supplied by Vantia (Southampton, England).

[3] = biological target: T1, APCE/FAP (Homo sapiens, UniProt Q12884); assay: APCE/FAP inhibition constants (Ki) with Tic-Pro-AFC substrate; type: biochemical; conditions: substrate Tic-Pro-AFC
T1 construct: absence of an about 26-residue amino terminal peptide constituting the transmembrane and intracytosolic domains; from tissue
T1 sequence (Q12884 24-760 limits assumed): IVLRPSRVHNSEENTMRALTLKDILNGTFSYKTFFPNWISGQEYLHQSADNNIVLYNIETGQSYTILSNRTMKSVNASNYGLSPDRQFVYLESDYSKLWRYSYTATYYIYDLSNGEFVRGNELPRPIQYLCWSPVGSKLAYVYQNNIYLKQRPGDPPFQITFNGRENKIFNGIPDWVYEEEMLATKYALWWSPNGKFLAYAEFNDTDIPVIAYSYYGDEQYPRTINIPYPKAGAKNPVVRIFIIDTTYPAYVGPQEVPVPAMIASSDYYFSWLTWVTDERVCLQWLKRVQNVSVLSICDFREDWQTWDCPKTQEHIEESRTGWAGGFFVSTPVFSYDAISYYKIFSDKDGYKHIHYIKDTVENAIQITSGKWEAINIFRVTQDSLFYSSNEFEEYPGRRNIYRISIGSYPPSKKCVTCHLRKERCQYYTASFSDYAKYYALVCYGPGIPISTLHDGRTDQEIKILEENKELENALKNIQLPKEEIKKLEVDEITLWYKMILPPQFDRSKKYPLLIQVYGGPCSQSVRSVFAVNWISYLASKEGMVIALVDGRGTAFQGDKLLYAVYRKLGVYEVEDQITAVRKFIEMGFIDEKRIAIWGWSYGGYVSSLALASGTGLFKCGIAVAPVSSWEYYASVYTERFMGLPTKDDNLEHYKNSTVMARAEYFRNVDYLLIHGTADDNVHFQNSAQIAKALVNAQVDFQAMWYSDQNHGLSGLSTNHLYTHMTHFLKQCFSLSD
Experimental: For accurate assessment of kinetic parameters, saturating concentrations of substrate were used. For standard curves, dilutions of AFC (7-amino-4-trifluoromethylcoumarin) were prepared in the same assay buffer and corresponding fluorescence was measured.

[4] = biological target: T2, FAP activity on WI-38 fibroblast surfaces (Homo sapiens, UniProt Q12884); assay: Whole cell activity assay, cleavage of C95 on WI-38 fibroblasts; type: cell-based; conditions: substrate C95, inhibitor 10 μM, 1 μM or 100 nM added at two hours
T2 construct: host or cells: WI-38 fibroblasts
T2 sequence (Q12884 1-760): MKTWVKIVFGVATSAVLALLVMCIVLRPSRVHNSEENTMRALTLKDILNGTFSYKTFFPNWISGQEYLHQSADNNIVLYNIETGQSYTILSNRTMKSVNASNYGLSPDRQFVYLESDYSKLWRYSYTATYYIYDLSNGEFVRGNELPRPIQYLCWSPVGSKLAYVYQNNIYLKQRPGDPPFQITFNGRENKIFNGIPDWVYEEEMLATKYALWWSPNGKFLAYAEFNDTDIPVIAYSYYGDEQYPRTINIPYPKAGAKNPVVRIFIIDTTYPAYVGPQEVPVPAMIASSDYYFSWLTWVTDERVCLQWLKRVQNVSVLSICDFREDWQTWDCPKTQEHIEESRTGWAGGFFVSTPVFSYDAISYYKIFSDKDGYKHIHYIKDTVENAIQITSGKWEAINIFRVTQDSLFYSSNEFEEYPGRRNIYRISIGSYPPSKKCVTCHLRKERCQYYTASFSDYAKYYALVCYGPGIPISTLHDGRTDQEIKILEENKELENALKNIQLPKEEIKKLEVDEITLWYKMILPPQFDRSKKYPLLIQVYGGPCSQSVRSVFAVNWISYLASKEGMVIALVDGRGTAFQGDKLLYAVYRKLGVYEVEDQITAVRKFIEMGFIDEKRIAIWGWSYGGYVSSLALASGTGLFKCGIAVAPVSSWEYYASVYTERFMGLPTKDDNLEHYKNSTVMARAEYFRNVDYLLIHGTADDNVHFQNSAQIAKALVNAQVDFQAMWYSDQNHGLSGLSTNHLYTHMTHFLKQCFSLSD
Experimental: WI-38 fibroblasts were grown on plastic, washed once with HBSS, after which the M83 inhibitor 10 μM in HBSS was added at zero time to one set, and buffer only to the other four sets. The fluorescent substrate C95 was added to all sets of wells and Δ fluorescence/min, reflecting cleavage of C95 over time, was allowed to proceed for two hours when 10 μM, 1 μM or 100 nM of the M83 inhibitor was added to each of three sets of wells.
Whole cell activity assays: Cells were cultured in normal growth media unless otherwise stated. […] Ten μl of fluorescent substrate, C95 were added to give a final concentration of 125 μM, and fluorescence was measured with time at 360/460 nm excitation/emission wavelengths using an FL600 microplate fluorescence reader (Bio-tek Instruments). Fluorescence units were converted to FAP units/100,000 cells by using a conversion factor determined from an APCE standard curve of prolyl-specific endopeptidase activity, such that 1 FAP unit is equivalent to the fluorescence produced by 1 ng of APCE/min. Since FAP and POP cleave the C95 substrate at an equivalent rate, both FAP and POP activities are expressed as FAP units in all figures.

## CC(=O)N[C@@H](CCCNC(=N)N)C(=O)NCCOCCOCC(=O)N[C@H](C)C(=O)N1CCC[C@H]1B(O)O [Compound M83, acetyl-Arg-AEEA-(D)Ala-(L)boroPro]
[1]
  effectiveness on cancer growth relative to J94: slightly more effective than this
[2]
  solubility in aqueous buffers: soluble in aqueous buffers
[3]
  Ki: 5.7 nM
[4]
  inhibition of FAP proteolytic activity on the cell surface: instantly, and essentially totally, inhibited; also recorded: instantly abolished endopeptidase activity

Reference: patent US9688722B2, “Substrates and inhibitors of prolyl oligopeptidase and methods of use” (The Board of Regents of the University of Oklahoma, priority 2012, dated 2017)
